According to patent publication US12600709B2, “Nonpeptide somatostatin type 5 receptor agonists and uses thereof” (Crinetics Pharmaceuticals, Inc., priority 2019, dated 2026):
Read-outs that look alike come from different tables or passages of the source.

Columns and labels:
[1] = biological target: T1, human somatostatin receptor subtype 2 (Homo sapiens, UniProt P30874); assay: cAMP assay for SST2R (inhibition of cAMP in CHO-K1 cells); format: cell-based; conditions: Table B; inhibition of cAMP via human SST2 receptor; read-out: SST2 potency
T1 construct: expressed in transfected cells
T1 sequence (P30874 whole entry): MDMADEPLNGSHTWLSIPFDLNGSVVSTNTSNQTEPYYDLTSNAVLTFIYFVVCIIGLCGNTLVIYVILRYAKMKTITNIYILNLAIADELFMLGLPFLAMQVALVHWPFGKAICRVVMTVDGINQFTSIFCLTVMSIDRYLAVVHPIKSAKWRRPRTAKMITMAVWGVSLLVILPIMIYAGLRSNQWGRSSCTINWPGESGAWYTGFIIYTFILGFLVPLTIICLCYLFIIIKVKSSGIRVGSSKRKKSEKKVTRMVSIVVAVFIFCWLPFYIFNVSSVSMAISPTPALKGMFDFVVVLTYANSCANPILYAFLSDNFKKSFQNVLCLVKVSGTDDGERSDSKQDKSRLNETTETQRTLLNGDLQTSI
Description: General overview: All five SSTR subtypes are Gi coupled G-protein coupled receptors (GPCRs) that lead to decreases in intracellular cyclic AMP (cAMP) when activated by an agonist. Therefore, measurement of intracellular cAMP levels can be used to assess whether compounds of the invention are agonists of SSTR subtypes (John Kelly, Troy Stevens, W. Joseph Thompson, and Roland Seifert, Current Protocols in Pharmacology, 2005, 2.2.1-2.2). One example of an intracellular cAMP assay is described below.
cAMP Assay Protocol for SST2R:
Four days prior to the assay, 5,000 Chinese hamster ovary cells (CHO-K1, ATCC #CCL-61) stably expressing the human somatostatin receptor subtype 2 are plated in each well of a 96-well tissue culture-treated plate in Ham's F12 growth media (ThermoFisher #10-080-CM) supplemented with 10% donor bovine serum (Gemini Bio-Products #100-506), 100 U/mL penicillin; 100 μg/mL streptomycin; 2 mM L-glutamine (Gemini Bio-Products #400-110) and 0.2 mg/mL hygromycin B (GoldBio #31282-04-9). The cells are cultured at 37° C., 5% CO2 and 95% humidity. On the day of the assay, the media is aspirated and the cells are treated with 50 μL of 1.6 μM NKH477 (Sigma #N3290) plus various dilutions of compounds of the invention in assay buffer [1× Hank's Balanced Salt Solution (ThermoFisher #SH3058802), 0.5 mM HEPES pH 7.4, 0.1% bovine serum albumin, 0.2 mM 3-Isobutyl-1-methylxanthine (IBMX, VWR #200002-790)]. The cells are incubated for 20 minutes at 37° C. […] The cells are treated with 50 μL of lysis buffer (HRTF cAMP kit, Cisbio). The lysate is transferred to 384-well plates and cAMP detection and visualization antibodies are added and incubated for 1-24 hours at room temperature. The time-resolved fluorescent signal is read with a Tecan M1000Pro multiplate reader. The intracellular cAMP concentrations are calculated by regression to a standard curve and are plotted vs. the concentration of the compounds of the invention and the EC50 of the compounds are calculated using standard methods. All data manipulations are in GraphPad Prism v6 or v7.

[2] = biological target: T2, human somatostatin receptor subtype 5 (Homo sapiens, UniProt P35346); assay: cAMP assay for SST5R (inhibition of cAMP in CHO-K1 cells); format: cell-based; conditions: for EC50: inhibition of cAMP via human SST5 receptor, read-out: SST5 potency; for Fold selectivity for SST5 vs SST2: class symbols, SST5 receptor over SST2 receptor
T2 construct: expressed in transfected cells
T2 sequence (P35346 whole entry): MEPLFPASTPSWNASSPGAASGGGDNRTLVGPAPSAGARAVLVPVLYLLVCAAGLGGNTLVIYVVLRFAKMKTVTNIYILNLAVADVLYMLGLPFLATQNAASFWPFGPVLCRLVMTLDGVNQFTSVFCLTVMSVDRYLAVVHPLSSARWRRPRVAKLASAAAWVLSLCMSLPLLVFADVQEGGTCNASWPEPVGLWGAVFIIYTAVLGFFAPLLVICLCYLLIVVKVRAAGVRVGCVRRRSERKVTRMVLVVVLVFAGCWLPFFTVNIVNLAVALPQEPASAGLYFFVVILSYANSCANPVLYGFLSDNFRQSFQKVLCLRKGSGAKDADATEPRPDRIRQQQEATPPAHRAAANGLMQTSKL
Method in brief: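 CHO-K1 cells stably expressing human SSTR5 were treated 20 min at 37 °C with compounds plus 1.6 μM NKH477 in HBSS, 0.5 mM HEPES pH 7.4, 0.1% BSA, 0.2 mM IBMX. Lysate cAMP measured by HTRF against a standard curve; EC50 from cAMP-versus-concentration plots.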

Compound | EC50 ([2]; Table A) | also measured
4-[(3S)-3-amino-3-methylpyrrolidin-1-yl]-5-(3-cyano-5-methoxyphenyl)-N-[(1S)-1-cyclopropylethyl]-6-methylpyridine-3-carboxamide [1-280] | < 10 nM | EC50 [1]: 100 to 1000 nM; Fold selectivity for SST5 vs SST2 ([2]; Table B): +++ (+++=>500); EC50 ([2]; Table B): < 10 nM
Cc1cc(C)cc(NC(=O)c2cncc(-c3cc(C)cc(C)c3)c2N2CC[C@@H](N)C2)c1 (single isomer, unassigned) [1-2] | 10 to 100 nM | EC50 [1]: < 10 nM; EC50 ([2]; Table B): 10 to 100 nM
Cc1cc(C)cc(NC(=O)c2cncc(-c3cc(C)cc(C)c3)c2N2CC[C@H](N)C2)c1 [1-1, 4-[(3S)-3-aminopyrrolidin-1-yl]-N,5-bis(3,5-dimethylphenyl)pyridine-3-carboxamide] | < 10 nM | EC50 [1]: 10 to 100 nM; Fold selectivity for SST5 vs SST2 ([2]; Table B): ++ (++=100 to 499); EC50 ([2]; Table B): < 10 nM
Cc1cccc2[nH]c(-c3cncc(C(=O)N(C)C4CC4)c3N3CC[C@](C)(N)C3)nc12 [2-22, 4-[(3S)-3-amino-3-methylpyrrolidin-1-yl]-N-cyclopropyl-N-methyl-5-(4-methyl-1H-1,3-benzodiazol-2-yl)pyridine-3-carboxamide] | 10 to 100 nM | –
C[C@H](NC(=O)c1cncc(-c2nc3c(F)cccc3[nH]2)c1N1CC[C@](C)(N)C1)C(F)(F)F [2-24, 4-[(3S)-3-amino-3-methylpyrrolidin-1-yl]-5-(4-fluoro-1H-1,3-benzodiazol-2-yl)-N-[(2S)-1,1,1-trifluoropropan-2-yl]pyridine-3-carboxamide] | < 10 nM | –
Cc1cccc2[nH]c(-c3cncc(C(=O)N4CCC(F)(F)C4)c3N3CC[C@](C)(N)C3)nc12 [2-25, (3S)-1-[3-(3,3-difluoropyrrolidine-1-carbonyl)-5-(4-methyl-1H-1,3-benzodiazol-2-yl)pyridin-4-yl]-3-methylpyrrolidin-3-amine] | 10 to 100 nM | –
Cc1cccc2[nH]c(-c3cncc(C(=O)N4CCC(C(C)(C)C)C4)c3N3CC[C@](C)(N)C3)nc12 (stereo partly drawn) [2-27, (3S)-1-[3-(3-tert-butylpyrrolidine-1-carbonyl)-5-(4-methyl-1H-1,3-benzodiazol-2-yl)pyridin-4-yl]-3-methylpyrrolidin-3-amine] | < 10 nM | –
Cc1cccc2[nH]c(-c3cncc(C(=O)N4C[C@@H](C)O[C@@H](C)C4)c3N3CC[C@](C)(N)C3)nc12 [2-28, (3S)-1-{3-[(2R,6S)-2,6-dimethylmorpholine-4-carbonyl]-5-(4-methyl-1H-1,3-benzodiazol-2-yl)pyridin-4-yl}-3-methylpyrrolidin-3-amine] | 10 to 100 nM | –
Cc1cccc2[nH]c(-c3cncc(C(=O)NCC4CCC4)c3N3CC[C@](C)(N)C3)nc12 [2-31, 4-[(3S)-3-amino-3-methylpyrrolidin-1-yl]-N-(cyclobutylmethyl)-5-(4-methyl-1H-1,3-benzodiazol-2-yl)pyridine-3-carboxamide] | < 10 nM | –
Cc1cccc2[nH]c(-c3cncc(C(=O)NC45CCC(CC4)C5)c3N3CC[C@](C)(N)C3)nc12 [2-33, 4-[(3S)-3-amino-3-methylpyrrolidin-1-yl]-N-{bicyclo[2.2.1]heptan-1-yl}-5-(4-methyl-1H-1,3-benzodiazol-2-yl)pyridine-3-carboxamide] | < 10 nM | –
Cc1cccc2[nH]c(-c3cncc(C(=O)N4CCc5ccccc54)c3N3CC[C@](C)(N)C3)nc12 [2-34, (3S)-1-[3-(2,3-dihydro-1H-indole-1-carbonyl)-5-(4-methyl-1H-1,3-benzodiazol-2-yl)pyridin-4-yl]-3-methylpyrrolidin-3-amine] | 10 to 100 nM | –
Cc1cccc2[nH]c(-c3cncc(C(=O)N4CCC5(CC5)C4)c3N3CC[C@](C)(N)C3)nc12 [2-39, (3S)-1-(3-{5-azaspiro[2.4]heptane-5-carbonyl}-5-(4-methyl-1H-1,3-benzodiazol-2-yl)pyridin-4-yl)-3-methylpyrrolidin-3-amine] | 10 to 100 nM | –
CC[C@H](NC(=O)c1cncc(-c2nc3c(C)cccc3[nH]2)c1N1CC[C@](C)(N)C1)C(F)(F)F [2-40, 4-[(3S)-3-amino-3-methylpyrrolidin-1-yl]-5-(4-methyl-1H-1,3-benzodiazol-2-yl)-N-[(2S)-1,1,1-trifluorobutan-2-yl]pyridine-3-carboxamide] | < 10 nM | –
C[C@H](NC(=O)c1ccnc(-c2cc(F)cc(F)c2)c1N1CC[C@](C)(N)C1)c1ccccc1 [3-3, 3-[(3S)-3-amino-3-methylpyrrolidin-1-yl]-2-(3,5-difluorophenyl)-N-[(1S)-1-phenylethyl]pyridine-4-carboxamide] | 100 to 1000 nM | –
C[C@]1(N)CCN(c2c(C(=O)NC3CCCC3)ccnc2-c2cc(F)cc(F)c2)C1 [3-8, 3-[(3S)-3-amino-3-methylpyrrolidin-1-yl]-N-cyclopentyl-2-(3,5-difluorophenyl)pyridine-4-carboxamide] | 10 to 100 nM | –
C[C@H](NC(=O)c1ncc(C#N)c(-c2cc(F)cc(F)c2)c1N1CC[C@](C)(N)C1)C1CC1 [4-3, 3-[(3S)-3-amino-3-methylpyrrolidin-1-yl]-5-cyano-N-[(1S)-1-cyclopropylethyl]-4-(3,5-difluorophenyl)pyridine-2-carboxamide] | < 10 nM | –
N-(adamantan-1-yl)-3-[(3S)-3-amino-3-methylpyrrolidin-1-yl]-2-(3,5-difluorophenyl)pyridine-4-carboxamide [3-7] | 10 to 100 nM | –

Now from value to compound, other results behind:

EC50 ([2]; Table A) | Compound | also measured
10 to 100 nM | Cc1cccc2[nH]c(-c3cncc(C(=O)N(C)CC4CC4)c3N3CC[C@](C)(N)C3)nc12 [2-23, 4-[(3S)-3-amino-3-methylpyrrolidin-1-yl]-N-(cyclopropylmethyl)-N-methyl-5-(4-methyl-1H-1,3-benzodiazol-2-yl)pyridine-3-carboxamide] | –
< 10 nM | Cc1cccc2[nH]c(-c3cncc(C(=O)NC(C)CC(F)(F)F)c3N3CC[C@](C)(N)C3)nc12 (stereo partly drawn) [2-32, 4-[(3S)-3-amino-3-methylpyrrolidin-1-yl]-5-(4-methyl-1H-1,3-benzodiazol-2-yl)-N-(4,4,4-trifluorobutan-2-yl)pyridine-3-carboxamide] | –
10 to 100 nM | Cc1cccc2[nH]c(-c3cncc(C(=O)N4CCC(C(F)(F)F)C4)c3N3CC[C@](C)(N)C3)nc12 (stereo partly drawn) [2-44, (3S)-3-methyl-1-[3-(4-methyl-1H-1,3-benzodiazol-2-yl)-5-[3-(trifluoromethyl)pyrrolidine-1-carbonyl]pyridin-4-yl]pyrrolidin-3-amine] | –
10 to 100 nM | C[C@H](NC(=O)c1ccnc(-c2cc(F)cc(F)c2)c1N1CC[C@](C)(N)C1)C1CC1 [3-1, 3-[(3S)-3-amino-3-methylpyrrolidin-1-yl]-N-[(1S)-1-cyclopropylethyl]-2-(3,5-difluorophenyl)pyridine-4-carboxamide] | –
< 10 nM | C[C@]1(N)CCN(c2c(C(=O)NC(C3CC3)C3CC3)ccnc2-c2cc(F)cc(F)c2)C1 [3-4, 3-[(3S)-3-amino-3-methylpyrrolidin-1-yl]-N-(dicyclopropylmethyl)-2-(3,5-difluorophenyl)pyridine-4-carboxamide] | –
10 to 100 nM | C[C@]1(N)CCN(c2c(C(=O)NC34CCC(CC3)C4)ccnc2-c2cc(F)cc(F)c2)C1 [3-5, 3-[(3S)-3-amino-3-methylpyrrolidin-1-yl]-N-{bicyclo[2.2.1]heptan-1-yl}-2-(3,5-difluorophenyl)pyridine-4-carboxamide] | –
10 to 100 nM | Cc1cnc(C(=O)N[C@@H](C)C2CC2)c(N2CC[C@](C)(N)C2)c1-c1cc(F)cc(F)c1 [4-2, 3-[(3S)-3-amino-3-methylpyrrolidin-1-yl]-N-[(1S)-1-cyclopropylethyl]-4-(3,5-difluorophenyl)-5-methylpyridine-2-carboxamide] | –
10 to 100 nM | COC(=O)c1cnc(C(=O)N[C@@H](C)C2CC2)c(N2CC[C@](C)(N)C2)c1-c1cc(F)cc(F)c1 [4-4, methyl 5-[(3S)-3-amino-3-methylpyrrolidin-1-yl]-6-{[(1S)-1-cyclopropylethyl]carbamoyl}-4-(3,5-difluorophenyl)pyridine-3-carboxylate] | –
> 1000 nM | C[C@H](NC(=O)c1ncc(C(N)=O)c(-c2cc(F)cc(F)c2)c1N1CC[C@](C)(N)C1)C1CC1 [4-5, 3-[(3S)-3-amino-3-methylpyrrolidin-1-yl]-N2-[(1S)-1-cyclopropylethyl]-4-(3,5-difluorophenyl)pyridine-2,5-dicarboxamide] | –
